In data set [1] the test system is Puro-incorporated proteins in HCT116, HT29, CCD841-CoN and Caco-2 cells. The data set can be described thus: Immunoblotting of Puro-incorporated proteins in cell lysates. The class given is cell-based, human. As to conditions: Puro 2.1 μM, 16 h, with or without TSA 0.5 μM. On the procedure: FIG. 27. Levels of Puro-incorporated proteins in the cells were monitored by immunoblotting. Indicated cell lines were treated either with vehicle control DMSO or Boc-KAc-Puro (16.9 μM) in the presence or absence of TSA (0.5 μM) for 20 h, followed by preparation of cell lysates. The lower panel (anti-α-Tubulin) serves as a loading control.
FIG. 28. Levels of Puro-incorporated proteins in the cells were monitored by immunoblotting. Indicated cell lines were treated either with vehicle control DMSO or Puro (2.1 μM) in the presence or absence of TSA (0.5 μM) for 16 h, followed by preparation of cell lysates. […] The lower panel (anti-α-Tubulin) serves as a loading control.
Cultured cells or tissue samples were sonicated in RIPA lysis buffer (1% NP-40, 0.1% SDS, 50 mM Tris-HCl pH 7.4, 150 mM NaCl, 0.5% sodium deoxycholate, 1 mM EDTA) supplemented with PMSF and protease inhibitor cocktail (Roche) on ice followed by clarification. Protein lysates were separated on sodium dodecyl sulfate-polyacrylamide gels and transferred onto nitrocellulose membranes (Whatman). The primary antibodies used were anti-puromycin (3RH11, KeraFAST) and anti-α-tubulin (Sigma-Aldrich). Proteins of interest were detected with anti-mouse secondary antibody by chemiluminescence (ECL Kit, GE Healthcare Life Sciences).
In general terms: A western blot detects proteins with antibodies after separation by electrophoresis.

The subject of data set [2] is non-malignant Caco-2 cells. The data set can be described thus: MTS cell viability assay, Caco-2. The class given is cell-based, human. Particulars: parental Puro, MTS, 3 d. How it is done:
FIG. 13. Inhibition of cell viability by BKAc-Puro is presented in dose-response curve format for the same cell lines as in FIG. 8. The cell lines were treated with DMSO or the indicated doses of agent (4.22, 8.44, 16.9, 33.8, 67.5, or 135 μM) for 5 d followed by MTS assay. Data represent mean values of triplicate measurements±s.d. (n=3). IC50 values were fit by logistic regression.
FIG. 14. Inhibition of cell viability by parental Puro. The cell lines were treated with the indicated doses of Puro (0, 1.1, 2.1, 4.2, or 8.4 μM) for 3 d followed by MTS assay. Data represent mean values of triplicate measurements±s.d.
Cell number was determined by cell counting using improved Neubauer hemacytometer. Cell viability was calculated as the number of viable cells divided by the total number of cells using Trypan Blue Stain (Invitrogen) to distinguish non-viable cells. Data were obtained from duplicated samples with quadruplicate measurements. MTS based cell viability assay was performed using CellTiter 96 Aqueous Cell Proliferation Assay (Promega) according to the manufacturer's instruction. Either 1 μl of DMSO alone or variable concentrations of BKAc-Puro or Puro in DMSO were added to the cell lines seeded at 5×10^4 cells per well in 96-well tissue culture plates in 100 μl of the growth medium, followed by 3-5 d incubation at 37° C. with 5% CO2 atmosphere. Then 20 μl of the MTS reagent was added to each well. After additional 2-3 h incubation, the absorbance of the formazan at 490 nm was measured by the microplate reader. Percent cell viability was expressed relative to the wells containing cells treated with DMSO alone. Data were obtained from triplicate measurements. […] Determination of non-viable cells using PI staining was performed by adding 1 μg/ml of PI solution (Sigma) to the cell culture, prior to the examination under fluorescence microscopy (Axiovert 3, Carl Zeiss) through a×32 objective equipped with a digital imaging processor (Infinity 3, Lumenera).

The conditions of data set [3]: single administration, cited from earlier work.
The subject of a further data set is BxPC3 cells (shGFP). The data set can be described thus: MTT cell viability assay, BxPC3 shGFP. The class given is cell-based. As to conditions: Homo sapiens, BXPC-3, 72 hr. On the procedure: (§1) FIG. 24. Effect of the prodrug on cell viability of BxPC3 cells (shGFP and shSki). Cells were treated with the indicated dose of drugs (BKAc-5FCR or 5FCR) for 72 hr followed by MTT assay. Data represent mean values of triplicate measurements±standard deviation. IC50 values were derived from nonlinear curve fit of the dose response data using an outlier's exclusion, variable slope model (GraphPad Prism software). All values are means of at least two independent experiments.
(§2) The in vitro efficacy of the compounds in a series of BxPC3 and CFPac-1 derivatives with reduced Class I HDAC activity following Ski knockdown (shSki), HDAC3 knockdown and control (shGFP) was assessed. The growth inhibitory/viability effects of the compounds (IC50 value, the concentration resulting in 50% growth inhibition) on the various cell lines were determined by dose response curve analysis (GraphPad Prism software) of MTT [3-(4,5dimethylthiazol-2-yl)-2,5-diphenyl-tetrazolium bromide] cell viability assay. If the prodrugs are activated in an HDAC-dependent manner, the cells with reduced HDAC activity would be predicted to be more resistant to the prodrug treatment than control cells, while the effect of free parental drugs on both cells would be expected to be similar.
In general terms: Tetrazolium assays rely on reduction of a dye to a coloured formazan, in cell work by metabolically active cells.

The next data set relates to BxPC3 cells (shSki). The data set can be described thus: MTT cell viability assay, BxPC3 shSki. The class given is cell-based. Particulars: Homo sapiens, BXPC-3, 72 hr. On the procedure:
as §1, §2

For another data set, the system named is BXPC3 cells. The data set can be described thus: MTS cell viability assay with or without TSA. The data set is classed as cell-based, human. As to conditions: 20 μM, 72 hr, TSA 50 nM. How it is done:
FIG. 25. Selective cytotoxicity by BKAc-5FCR. Human pancreatic BXPC3 cells were treated with DMSO (vehicle), BKAc-5FCR (20 μM), or 5FCR (20 μM) for 72 hr with or without TSA (50 nM) followed by MTS cell viability assay. Representative phase contrast images of cells treated with DMSO (vehicle) or BKAc-5FCR (20 μM) for 72 hr with or without TSA (50 nM) are shown.

The subject of data set [4] is HDAC and endogenous protease (cathepsin L) activity in BxPC3 and CFPac-1 cells. The data set can be described thus: Live cell enzymatic assay with Boc-Lys(Ac)-AMC, release of AMC. The data set is classed as cell-based. Particulars: for Activation of substrate Boc-Lys(Ac)-AMC: substrate 25 μM, 6 hr. On the procedure: FIG. 5. A. HDAC assay using different substrates in BxPC3 cells (shGFP and shSki). Cells were incubated with Boc-Lys(Ac)-AMC or Ac-Arg-Gly-Lys(Ac)-AMC (25 μM) for 1 hr with DMSO (vehicle) or TSA (1 μM) as indicated, followed by cell lysis and trypsin treatment, and fluorescence measurements. Data represent mean values of triplicate measurements±standard deviation. RFU, relative fluorescent units. B. Similar experiment was done as in A but without cell lysis and trypsin treatment. Cells were incubated with the substrates for 2.5 hr.
FIG. 6. A. Release of AMC by combined HDAC and endogenous protease-dependent enzymatic reaction in BxPC3 and CFPac-1 cells (shGFP and shSki). Cells were incubated with substrate Boc-Lys(Ac)-AMC (25 μM) for 6 hr with DMSO (vehicle), TSA (1 μM), or Z-FY-CHO (10 μM) as indicated, followed by fluorescence measurements. Data represent mean values of triplicate measurements±standard deviation. RFU, relative fluorescent units. B. Time course of AMC release in BxPC3 cells (shGFP and shSki). Each cells were incubated with Boc-Lys(Ac)-AMC (25 μM) for 2.5, 6.0, and 23 hr with DMSO (vehicle) or TSA (1 μM) as indicated.
Tissue culture based standard HDAC assays were performed by commercially available fluorimetric HDAC assay kit (SensoLyte, AnaSpec) according to the manufacturer's instruction with modification of using 25 μM Boc-Lys(Ac)-AMC (Bachem) as substrate and measuring parameter (Ex/Em=355 nm/460 nm) for AMC. […] After 15 m incubation at room temperature, the fluorescent signal of AMC was measured by SpectraMax M5 microplate reader (Molecular Devices) at Ex/Em=355 nm/460 nm. Live cell lysyl endopeptidase assay was performed by applying the substrate 25 μM Boc-Lys-AMC (Bachem) [either with DMSO or 100 μM Z-FY-CHO (EMD)] to the overnight culture seeded from 6×10^4 cells in 100 μl medium in 96-well tissue culture plates, followed by 20 h incubation at 37° C. with 5% CO2 atmosphere, then the fluorescent signal of AMC was measured. Live cell enzymatic assay using Boc-Lys(Ac)-AMC was performed by applying the substrate 25 μM Boc-Lys(Ac)-AMC (either with DMSO, 1 μM TSA or 100 μM Z-FY-CHO) to the overnight culture seeded from 6×10^4 cells in 100 μl medium in 96-well tissue culture plates, followed by 20 h incubation at 37° C. with 5% CO2 atmosphere, then the fluorescent signal of AMC was measured. […]
Fluorescence measurement was done at λex=390 nm and λem=460 nm for AMC. […] Cells were then lysed and the lysates incubated with exogenously added excess trypsin to cleave only those lysine residues that are de-acetylated and activate fluorescence. […]

For the next data set, the system named is cells. The data set can be described thus: 72 hr in vitro cytotoxicity with TSA. The data set is classed as cell-based. As to conditions: TSA 1 μM. From the text:
The prodrugs that are synthesized may have some basal level of cytotoxicity before they are activated by HDAC3. One way to determine the IC50 values of the uncleaved forms of the prodrugs would be to use HDAC inhibitors both in vitro and in vivo. […] […] […] For example, among available HDAC inhibitors, SAHA (Vorinostat), a FDA approved pharmaceutical HDAC inhibitor (Bradner, J. E. et al. 2010), is known to inhibit all of these HDACs with much lower cytotoxicity than TSA. Thus, SAHA is an alternative HDAC inhibitor for the prodrug evaluation as well. By comparing the prodrug ICo values for cytotoxicity under conditions of HDAC inhibition with those values where HDACs are active we are able to provide data on the HDAC dependence of our new class of prodrugs.

Data set [5] addresses T1, lysyl endopeptidase activity (CTSL) in live cells (Homo sapiens, UniProt P07711).
T1 construct: endogenous in cells; host or cells: Panel of cultured lines: Caco-2, COGA-10, HCA-7, HT29, HCT116, CCD841-CoN, MiaPaca-2, BXPC-3, HepG2, HeLa (human) and Eph4 (mouse)
The data set can be described thus: Live cell lysyl endopeptidase assay with Boc-Lys-AMC. The class given is cell-based. As to conditions: Z-FY-CHO 100 μM, substrate 25 μM, 20 h. How it is done: FIG. 2. Comparative live cell lysyl endopeptidase activity of the same cell lines as in FIG. 1 using substrate Boc-Lys-AMC either with vehicle control DMSO or Z-FY-CHO (100 μM). Data represent mean values of triplicate measurements±s.d. RFU, relative fluorescent units.
Tissue culture based standard HDAC assays were performed by commercially available fluorimetric HDAC assay kit (SensoLyte, AnaSpec) according to the manufacturer's instruction with modification of using 25 μM Boc-Lys(Ac)-AMC (Bachem) as substrate and measuring parameter (Ex/Em=355 nm/460 nm) for AMC. Basically, HDAC substrate 25 μM Boc-Lys(Ac)-AMC [either with DMSO or 1 μM TSA (Sigma)] was applied to the overnight culture seeded from 6×10^4 cells in 100 μl medium in 96-well tissue culture plates, followed by 2 to 3 h incubation at 37° C. with 5% CO2 atmosphere. […] After 15 m incubation at room temperature, the fluorescent signal of AMC was measured by SpectraMax M5 microplate reader (Molecular Devices) at Ex/Em=355 nm/460 nm. Live cell lysyl endopeptidase assay was performed by applying the substrate 25 μM Boc-Lys-AMC (Bachem) [either with DMSO or 100 μM Z-FY-CHO (EMD)] to the overnight culture seeded from 6×10^4 cells in 100 μl medium in 96-well tissue culture plates, followed by 20 h incubation at 37° C. with 5% CO2 atmosphere, then the fluorescent signal of AMC was measured. […]

Read-outs that look alike come from different tables or passages of the source. Residues, ends and D or L forms follow the SMILES beside them. *: point of attachment. Cbz = O=C(OCc1ccccc1)*

T1 sequence (P07711 114-288 limits assumed): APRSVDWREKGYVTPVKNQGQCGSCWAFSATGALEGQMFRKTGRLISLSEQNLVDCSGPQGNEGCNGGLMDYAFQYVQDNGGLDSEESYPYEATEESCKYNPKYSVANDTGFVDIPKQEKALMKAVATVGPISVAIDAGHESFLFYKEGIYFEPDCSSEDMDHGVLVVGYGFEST
T1 sequence (P07711 292-333 limits assumed): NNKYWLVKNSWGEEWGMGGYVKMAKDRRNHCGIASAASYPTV

Usually LD50 stands for the dose expected to kill half of the subjects tested. Take `COc1ccc(C[C@H](N)C(=O)N[C@H]2[C@@H](O)[C@H](n3cnc4c(N(C)C)ncnc43)O[C@@H]2CO)cc1` [Puro, puromycin]: the “Puro incorporation between cell lines regardless of TSA treatment” value in data set [1] was “no difference”. The “Effect on cell viability” value in [2] is reported as “effective”. The figures for the LD50 in data set [3] (intraperitoneally), in data set [3] (intravenously) and in [3] (orally) were 580 mg/kg, 335 mg/kg and 720 mg/kg, respectively.

What is called IC50 is the midpoint of a concentration-inhibition curve. The low end stands for greater potency in that assay, the high end for weaker potency in that assay. With `Nc1nc(=O)n([C@@H]2O[C@H](CO)[C@@H](O)[C@H]2O)cc1F` [5FCR, 5-fluorocytidine], the IC50 with BxPC3 cells (shGFP) is 1300 nM; with BxPC3 cells (shSki), 1200 nM.

Regarding `CC(=O)NCCCCC(NC(=O)OC(C)(C)C)C(=O)Nc1nc(=O)n([C@@H]2O[C@H](CO)[C@@H](O)[C@H]2O)cc1F` (stereo partly drawn) [BKAc-5FCR, t-butyl (6-acetamido-1-((1-((2R,3R,4S,5R)-3,4-dihydroxy-5-(hydroxymethyl)tetrahydrofuran-2-yl)-5-fluoro-2-oxo-1,2-dihydropyrimidin-4-yl)amino)-1-oxohexan-2-yl) carbamate], in the data set on BXPC3 cells, the “Cytotoxic effect in the presence of HDAC inhibitor TSA” value is listed as “substantially compromised”.

Consider `CC(/C=C/C(=O)NO)=C\[C@@H](C)C(=O)c1ccc(N(C)C)cc1` [TSA, Trichostatin A], for which, in data set [4] (TSA 1 μM), the “Activation of substrate Boc-Lys(Ac)-AMC” value is “completely inhibited activation”. Further, the Cytotoxicity result in the data set on cells was “cytotoxic effect”.

Regarding `O=C[C@H](Cc1ccc(O)cc1)NC(=O)[C@H](Cc1ccccc1)NC(=O)OCc1ccccc1` [Z-FY-CHO] (Cbz-Phe-Tyr-aldehyde), the “Activation of substrate Boc-Lys(Ac)-AMC” value in data set [4] (Z-FY-CHO 10 μM) is listed as “completely abrogated”. For the same molecule, the “Release of AMC” value in data set [5] is listed as “significantly blocked”.

In the case of `CC(=O)NCCCC[C@H](NC(=O)OC(C)(C)C)C(=O)Nc1ccc2c(C)cc(=O)oc2c1` [Boc-Lys(Ac)-AMC], the “Time course of AMC release” value in [4] (BxPC3, 25 μM, over 20 hr) is “released linearly”. Also, the “Activation in live cells relative to total HDAC activity” value in data set [4] (BxPC3 live cells, 25 μM, 2.5 hr, without lysis and trypsin) is recorded as “approximately 50%”.

These data come from patent publication US20160184459A1, “CANCER CELL SPECIFIC IMAGING PROBES AND METHODS OF USE” (THE RESEARCH FOUNDATION FOR THE STATE UNIVERSITY OF NEW YORK, priority 2013, published 2016).
